Results: patent publication US12622916B2, “Use of H3K9me3 modulation for enhancing cognitive function” (THE REGENTS OF THE UNIVERSITY OF CALIFORNIA, priority 2015, dated 2026)

What was measured:
hippocampal synaptosomes = assay: Flow synaptometry of hippocampal synaptosomes of aged mice; format: in vivo; conditions: 10 mg/kg i.p.
Experimental: Spine counts: In another series of experiments 10 aged mice (20-22 months) were injected with ETP69 (10 mg/kg; i.p) or vehicle (i.p) and 24 hours later the animals were euthanized and the brains were separated into two hemispheres. Right hemisphere was used for Golgi staining and the left was processed for flow synaptometry. Staining was conducted according to manufacturer's information (Golgi-Cox, Bioenna).
Flow Synaptometry: Fresh synaptosome P2 fractions were obtained from whole mouse hippocampus using our long-standing protocol. Briefly, the fractions were obtained from the hippocampus by homogenizing tissue (1:10 w/v) in ice-cold sucrose 320 mM. All the steps were carried out at 4° C.; sucrose buffer, grinder, pestle and microfuge tubes were all pre-cooled on ice. Hippocampi were rapidly dissected from a single mouse and homogenized in 320 mM sucrose (1.5 ml) containing HEPES [10 mM] and protease/phosphatase inhibitors cocktail, pH 7.4. Homogenization consisted of 6-8 manual strokes in a glass-Teflon grinder, clearance (between plunger and glass): 0.15-0.25 mm. Plunger was gently rotated during strokes while the grinder was kept on ice. The homogenate was centrifuged at 1200 g for 10 min. Supernatant (S1, containing mitochondria and synaptosomes) was transferred into two clean microfuge tubes and centrifuged at 12,000 g for 20 min. Supernatants (S2) were carefully removed using a plastic tip and vacuum. Pellets (P2, corresponding to the crude synaptosome fraction) were resuspended by gently pipetting up and down in 1.5 ml of PBS Protein concentration was determined using the BCA assay using bovine serum albumin (BSA) as standard. Before immunolabeling, all samples were adjusted to the same protein concentration using PBS as diluent. Immunolabeling for flow synaptometry analysis was performed according to a method for staining of extracellular/intracellular antigens using 200 ul of synaptosomal fractions (50-100 μg protein). Antibodies: GluR1 (extracellular) (Millipore, ABN241, DIL=1:400), p-Akt-ser473 (Cell Signaling, 4060, DIL=1:400), PSD-95 (Millipore, MAB1598, DIL=1:400), anti-rabbit IgG Alexa-488 ad anti-mouse IgG Alexa 647 (Life Science, DIL=1:400). […] Relative size and granularity was determined by forward (FSC) and side scatter (SSC) properties. […] Alexa 488 and Alexa 647 fluorochromes were detected by the FL1 and FL4 detectors, respectively. […] Ten thousand size-gated particles were collected and analyzed for each sample. […]
Next, we studied the influence of ETP69 on synapses using flow synaptometry, an innovative approach to molecularly characterize isolated synaptosomes (presynaptic terminals attached to post-synaptic dendritic spines). […] After drug treatment, hippocampal synaptosome fractions were immunostained and analyzed by flow synaptometry. […]

H3K9me3 = H3K9me3 level in cultured hippocampal neurons by Western blotting; format: cell-based
Experimental: Next, we examined the effect of ETP69 on H3K9me3 levels in cultured hippocampal neurons. […] FIGS. 14A-B are illustrations of the effect of ETP69 on H3K9me3 levels in 14 DIV hippocampal neurons (FIG. 14A—gel image; FIG. 14B—quantification, n=3, *, p<0.05). As the illustrations show, ETP69 treatment (24 hours) decreased H3K9me3 level measured by Western blotting.

CREB = CREB phosphorylation at Ser133 by Western blotting; format: cell-based
Description: FIG. 16 is an image illustrating ETP69 increased CREB phosphorylation at Ser133 measured by Western blotting. CREB is a transcription factor whose activation is involved in synaptic plasticity and memory formation.

`CN1C(=O)[C@@]23C[C@](C)(C#N)[C@H](c4ccc5c(c4)OCO5)N2C(=O)[C@]1(C)SS3` (racemic) [ETP69, Rac-(3S,6S,7S,8aS)-6-(benzo[d][1,3]dioxol-5-yl)-2,3,7-trimethyl-1,4-dioxohexahydro-6H-3,8a-epidithiopyrrolo[1,2-a]pyrazine-7-carbonitrile] was tested, and the “PSD95 levels per particle (Mean Fluorescence of intensity)” value (hippocampal synaptosomes; 24 hours) was “No detectable changes”, the “proportion of size-gated synaptosomes expressing PSD95” value (hippocampal synaptosomes; 24 hours) was “increases the proportion of synaptosomes expressing PSD95” and the “PSD95-positive events co-expressing surface GluR1” value (hippocampal synaptosomes; versus vehicle-treated controls) was “increase”. For the same molecule, the “proportion of events expressing both p-Akt and PSD-95” value (hippocampal synaptosomes; versus vehicle-treated mice) was “increased the proportion of events expressing both p-Akt and PSD-95”, the “neuronal H3K9me3 level at 20 nM” value (H3K9me3; 20 nM, 24 hours) was “greatest decrease” and the “neuronal H3K9me3 level” value (H3K9me3; 24 hours treatment, 14 DIV hippocampal neurons) was “dose-dependent decrease”. For the same molecule, the “phosphorylation of CREB at Ser133” value (CREB) was “increased phosphorylation”.
